Data: paper PMC5118696, “Identification of inhibitors that dually target the new permeability pathway and dihydroorotate dehydrogenase in the blood stage of Plasmodium falciparum” (Scientific Reports, 2016)
Where two headings read alike, the source gives them in different places.

What was measured:
[1] = test system: Hyp1-NLuc Plasmodium falciparum-infected erythrocytes (new permeability pathway, NPP); assay: microbe, parasite or virus in culture; conditions: Erythrocyte, 0.33 h, read-out: Mean RLU at 28 min (As % of DMSO control)
[2] = test system: Hyp1-NLuc Plasmodium falciparum-infected erythrocytes (new permeability pathway, NPP); assay: microbe, parasite or virus in culture; conditions: Erythrocyte, 0.33 h, read-out: % of control remaining

For `COc1ccccc1N=C1C(=O)c2ccccc2C(O)=C1N1CCCCC1` [MMV085203], the activity at 2 µM [1] was 107% and the activity at 2 µM [2] was 104%.
`COc1cc2c(cc1OC)C1=NNC(=O)C1=NC(C)(C)C2` [MMV084940] gave an activity at 2 µM [1] of 101% and an activity at 2 µM [2] of 101%.
In the case of `O=C(NC1CCN(Cc2ccccc2)CC1)c1cc(-c2cccnc2)nc2ccc(Cl)cc12` [MMV020490], the activity at 2 µM [1] is reported as 101% and the activity at 2 µM [2] is reported as 98.9%.
`FC(F)(F)c1cccc(Nc2nc3ccccc3nc2Nc2cccc(C(F)(F)F)c2)c1` [MMV665794] gave an activity at 2 µM [1] of 103% and an activity at 2 µM [2] of 109%.
With `Cc1ccc(F)cc1NC(=O)c1cc(Cl)ccc1Nc1ccccc1` [MMV007275] the activity at 2 µM [1] was 106% and the activity at 2 µM [2] was 116%.
For `C=C(C)CCC(C)N1CCC(N2CCC(C(=O)NCCc3ccccc3)CC2)CC1` (stereo not shown) [MMV666110], the activity at 2 µM [1] was 108% and the activity at 2 µM [2] was 116%.
Molecule `CCCn1c(=N)c(C(=O)NC2CCCCC2)cc2c(=O)n3cccc(C)c3nc21` [MMV008829] has an activity at 2 µM [1] of 106% and an activity at 2 µM [2] of 105%.
Molecule `Oc1c2c(nc3cc(-c4ccccc4)nn13)CCCC2` [MMV008270] has an activity at 2 µM [1] of 100% and an activity at 2 µM [2] of 56.9%.
Work on `Oc1c(C(Nc2ccccn2)c2cccc(Oc3ccccc3)c2)ccc2cccnc12` (stereo not shown) [MMV665814] yielded an activity at 2 µM [1] of 98.8% and an activity at 2 µM [2] of 98.6%.
Molecule `Cc1ccc(-c2nc3ccccc3o2)cc1NCc1cc(Cc2ccccc2)ccc1O` [MMV020912] has an activity at 2 µM [1] of 99.2% and an activity at 2 µM [2] of 94.7%.
Work on `CCCCCCC(O)(c1ccc(F)cc1)C(CN1CCOCC1)c1ccccc1` (stereo not shown) [MMV000621] yielded an activity at 2 µM [1] of 106% and an activity at 2 µM [2] of 117%.
For `OCCNc1nc(Nc2ccc(Cl)c(Cl)c2)nc2ccccc12` [MMV001041], the activity at 2 µM [1] was 97.4% and the activity at 2 µM [2] was 95.1%.
`COc1ccc(C(=O)C2CC2c2ccc(Cl)cc2)cc1` (stereo not shown) [MMV665924] was tested, and the activity at 2 µM [1] was 100% and the activity at 2 µM [2] was 103%.
`CC(=O)Nc1nnc(SCc2c(C)cc(C(C)(C)C)cc2C)s1` [MMV020700] showed an activity at 2 µM [1] of 114% and an activity at 2 µM [2] of 115%.
Molecule `CN(C)c1ccc(-c2nc3cc(N)ccc3[nH]2)cc1` [MMV666102] has an activity at 2 µM [1] of 98.7% and an activity at 2 µM [2] of 90%.
`Oc1ccccc1CN1CCC2(CCCN(Cc3ccccc3F)C2)C1` (stereo not shown) [MMV666116] gave an activity at 2 µM [1] of 100% and an activity at 2 µM [2] of 106%.
For `CCCCc1c(C)nc2c(OC)cccc2c1O` [MMV006820], the activity at 2 µM [1] was 106% and the activity at 2 µM [2] was 105%.
For `Oc1ccc2ccccc2c1CNc1nc2ccccc2[nH]1` [MMV011832], the activity at 2 µM [1] was 107% and the activity at 2 µM [2] was 102%.
For `O=C(NCc1ccco1)C1CCN(S(=O)(=O)c2ccc(Cl)cc2)CC1` [MMV006188], the activity at 2 µM [1] was 106% and the activity at 2 µM [2] was 112%.
With `CCC1(C)CC(CCNCc2ccccc2O)(c2ccc(C)cc2)CCO1` (stereo not shown) [MMV019406] the activity at 2 µM [1] was 107% and the activity at 2 µM [2] was 105%.
For `CCN(CC)CCCNc1ccnc2cc3ccccc3cc12` [MMV665783], the activity at 2 µM [1] was 101% and the activity at 2 µM [2] was 106%.
With `COc1ccc2nc(C)cc(Nc3cccc(O)c3)c2c1` [MMV008212] the activity at 2 µM [1] was 106% and the activity at 2 µM [2] was 107%.
`CCCCCCc1cc(O)c2c3c(c(=O)oc2c1)CCC(C)C3` (stereo not shown) [MMV665987] showed an activity at 2 µM [1] of 89.8% and an activity at 2 µM [2] of 94.7%.
`FC(F)(F)c1cccc(CNC2CCN(CCc3ccccc3)CC2)c1` [MMV665979] was tested, and the activity at 2 µM [1] was 104% and the activity at 2 µM [2] was 112%.
`COc1ccc(OC)c(C2C3=C(CC(C)(C)CC3=O)N(c3ccc(Cl)c(Cl)c3)C3=C2C(=O)CC(C)(C)C3)c1` [MMV007208] gave an activity at 2 µM [1] of 102% and an activity at 2 µM [2] of 104%.
With `CCOc1cc(CNC(C)C(O)c2ccccc2)cc(Cl)c1OCC` (stereo not shown) [MMV396633] the activity at 2 µM [1] was 113% and the activity at 2 µM [2] was 114%.
Work on `CCCCOC(=O)c1ccc(Nc2cc(C)nc3ccc(OC)cc23)cc1` [MMV665797] yielded an activity at 2 µM [1] of 104% and an activity at 2 µM [2] of 107%.
In the case of `O=C(CSc1ccc2nnc(-c3cccc(F)c3)n2n1)Nc1ccc2c(c1)OCO2` [MMV665918], the activity at 2 µM [1] is reported as 106% and the activity at 2 µM [2] is reported as 121%.
In the case of `CCOc1cc2c(cc1OCC)C(c1cc(Cl)ccc1O)NCC2` (stereo not shown) [MMV000478], the activity at 2 µM [1] is reported as 104% and the activity at 2 µM [2] is reported as 95.3%.
